For one experiment, the target named is T1, Human PKMYT1 (Homo sapiens, UniProt Q99640).
T1 construct: Human PKMYT1 75-362 was cloned as a TEV cleavable 6xHis fusion; 6xHis (TEV cleavable) (cleaved yes); made in house; host or cells: bacterial cells
T1 sequence (Q99640 75-362): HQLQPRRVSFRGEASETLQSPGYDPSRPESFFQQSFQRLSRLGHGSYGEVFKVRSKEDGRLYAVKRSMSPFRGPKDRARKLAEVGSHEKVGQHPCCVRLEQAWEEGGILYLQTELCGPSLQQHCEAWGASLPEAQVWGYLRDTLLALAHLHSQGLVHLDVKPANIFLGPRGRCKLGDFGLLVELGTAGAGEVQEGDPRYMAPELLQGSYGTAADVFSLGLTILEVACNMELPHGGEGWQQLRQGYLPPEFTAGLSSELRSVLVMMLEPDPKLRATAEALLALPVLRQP
In words: PKMYT1 biochemical ADP-Glo enzymatic assay. Particulars: ADP-Glo; 15 nM PKMYT1 kinase domain, 500 µM ATP, 60 minutes at 26° C.; banded. Put shortly:
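Measures inhibition of PKMYT1 autonomous ATP hydrolysis: bacterially expressed human enzyme (75-362, tag cleaved) at 15 nM with 500 µM ATP for 60 min at 26 °C, then ADP-Glo Max detection. IC50s accepted only when replicates agreed within 3-fold and curve r2 exceeded 0.9.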
Background: ADP-Glo first removes unused ATP, then detects ADP through luciferase.

The target of a further experiment is T2, WEE1 (Homo sapiens, UniProt P30291).
T2 construct: purchased Thermo Fisher PR7373A
T2 sequence (P30291 whole entry): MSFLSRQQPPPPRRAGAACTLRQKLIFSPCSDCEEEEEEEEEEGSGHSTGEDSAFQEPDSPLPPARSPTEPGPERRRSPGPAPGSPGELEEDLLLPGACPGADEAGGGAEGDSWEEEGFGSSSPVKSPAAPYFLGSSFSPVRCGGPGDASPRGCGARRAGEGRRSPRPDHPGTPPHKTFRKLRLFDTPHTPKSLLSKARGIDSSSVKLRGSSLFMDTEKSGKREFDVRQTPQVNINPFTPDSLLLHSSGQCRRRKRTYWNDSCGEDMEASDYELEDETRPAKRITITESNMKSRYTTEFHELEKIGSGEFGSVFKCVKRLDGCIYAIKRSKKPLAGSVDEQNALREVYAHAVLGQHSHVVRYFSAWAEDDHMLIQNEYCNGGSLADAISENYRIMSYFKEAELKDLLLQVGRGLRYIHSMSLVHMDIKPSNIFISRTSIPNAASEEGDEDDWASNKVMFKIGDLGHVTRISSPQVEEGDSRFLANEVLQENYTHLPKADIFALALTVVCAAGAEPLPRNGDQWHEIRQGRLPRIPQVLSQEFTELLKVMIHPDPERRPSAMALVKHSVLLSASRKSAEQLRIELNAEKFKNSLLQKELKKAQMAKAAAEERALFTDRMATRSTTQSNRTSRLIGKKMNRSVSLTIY
As to the kind of experiment: Selectivity versus WEE1 assay (ADP-Glo enzymatic assay). The class given is biochemical. The note with it: banded; for IC50: ADP-Glo, 15 nM WEE1, 60 minutes at 26° C.; for PKMYT1 vs. WEE1 selectivity: fold difference in selectivity for PKMYT1 over WEE1, ">N" = at least in this band but could be higher. Put shortly: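 Same format as the PKMYT1 assay: WEE1 at 15 nM final with 30 µM ATP, 60 min at 26° C, ADP-Glo luminescence detection, IC50 by dose-response fitting.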

The values that follow come from patent US20260297042A1, “BIARYLAMIDE DERIVATIVES AND THEIR USE AS PKMYT1 INHIBITORS” (CANCER RESEARCH TECHNOLOGY LIMITED, priority 2023, published 2026).

Consider `Cc1ccc(O)c(C)c1NC(=O)c1cnc(Nc2cc(C(F)(F)F)nc(OCC(F)(F)F)n2)s1` [BAA-318, N-(3-hydroxy-2,6-dimethylphenyl)-2-((2-(2,2,2-trifluoroethoxy)-6-(trifluoromethyl)pyrimidin-4-yl)amino)thiazole-5-carboxamide], for which, on Human PKMYT1, the IC50 (as a rule, the concentration that inhibits the measured activity by half) lay within 0.05 to 1 µM. At WEE1, the IC50 is > 11 µM and the “PKMYT1 vs. WEE1 selectivity” value was “Y (1000-5000 fold)”.

The molecule `Cc1cc(Nc2ccc(F)cc2)nnc1Nc1ncc(C(=O)Nc2c(C)ccc(O)c2C)s1` [BAA-324, 2-((6-((4-fluorophenyl)amino)-4-methylpyridazin-3-yl)amino)-N-(3-hydroxy-2,6-dimethylphenyl)thiazole-5-carboxamide] displayed an IC50 on Human PKMYT1 of 0.05 to 1 µM. Further, on WEE1, the IC50 is > 11 µM and the “PKMYT1 vs. WEE1 selectivity” value is given as “X (100-<1000 fold)”.

Molecule `Cc1ccc(O)c(C)c1NC(=O)c1cnc(Nc2cc3ccc(O)cn3n2)s1` [BAA-343, N-(3-Hydroxy-2,6-dimethylphenyl)-2-((6-hydroxypyrazolo[1,5-a]pyridin-2-yl)amino)thiazole-5-carboxamide] came in with an IC50 at Human PKMYT1 of 0.05 to 1 µM. Further, at WEE1, the IC50 lay within 1 to 11 µM and the “PKMYT1 vs. WEE1 selectivity” value is on record as “W (10-<100 fold)”.

`Cc1ccc(O)c(C)c1NC(=O)c1cnc(NCc2ccccc2)s1` [BAA-344, 2-(benzylamino)-N-(3-hydroxy-2,6-dimethylphenyl) thiazole-5-carboxamide] yielded an IC50 against Human PKMYT1 of 0.05 to 1 µM. Also, on WEE1, the concentration for half-maximal inhibition (IC50) was > 11 µM and the “PKMYT1 vs. WEE1 selectivity” value was “Y (1000-5000 fold)”.

Regarding `Cc1ccc(O)c(C)c1NC(=O)c1cnc(NCc2cccnc2)s1` [BAA-345, N-(3-hydroxy-2,6-dimethylphenyl)-2-((pyridin-3-ylmethyl)amino)thiazole-5-carboxamide], the IC50 at Human PKMYT1 was in the range of 0.05 to 1 µM. At WEE1, the IC50 was > 11 µM and the “PKMYT1 vs. WEE1 selectivity” value is “Y (1000-5000 fold)”.

Take `Cc1ccc(O)c(C)c1NC(=O)c1cnc(NCc2cccc(O)c2)s1` [BAA-346, N-(3-hydroxy-2,6-dimethylphenyl)-2-((3-hydroxybenzyl)amino)thiazole-5-carboxamide]: the values for the IC50 against Human PKMYT1 and at WEE1 were < 0.05 µM and > 11 µM, respectively. Further, at WEE1, the “PKMYT1 vs. WEE1 selectivity” value was “Y (1000-5000 fold)”.

As for `Cc1ccc(O)c(C)c1NC(=O)c1cnc(NCC2CC2)s1` [BAA-347], the IC50 against Human PKMYT1 lay in the range of 0.05 to 1 µM. Also, on WEE1, the IC50 was > 11 µM and the “PKMYT1 vs. WEE1 selectivity” value is given as “X (100-<1000 fold)”.

`Cc1ccc(O)c(C)c1NC(=O)c1cnc(NCc2ccn(C)n2)s1` [BAA-348, N-(3-hydroxy-2,6-dimethylphenyl)-2-(((1-methyl-1H-pyrazol-3-yl)methyl)amino) thiazole-5-carboxamide] registered an IC50 on Human PKMYT1 of 0.05 to 1 µM. In addition, at WEE1, the concentration for half-maximal inhibition (IC50) was > 11 µM and the “PKMYT1 vs. WEE1 selectivity” value is listed as “X (100-<1000 fold)”.

At Human PKMYT1, `Cc1ccc(O)c(C)c1NC(=O)c1cnc(NCc2ccccn2)s1` [BAA-349, N-(3-hydroxy-2,6-dimethylphenyl)-2-((pyridin-2-ylmethyl)amino) thiazole-5-carboxamide] displayed a half-maximal inhibitory concentration (IC50) of 0.05 to 1 µM. On WEE1, the IC50 was > 11 µM and the “PKMYT1 vs. WEE1 selectivity” value was “X (100-<1000 fold)”.

Turning to `Cc1ccc(O)c(C)c1NC(=O)c1cnc(NCc2ccncc2)s1` [BAA-350, N-(3-hydroxy-2,6-dimethylphenyl)-2-((pyridin-4-ylmethyl)amino) thiazole-5-carboxamide], the IC50 against Human PKMYT1 lay in the range of 0.05 to 1 µM. Moreover, on WEE1, the IC50 is > 11 µM and the “PKMYT1 vs. WEE1 selectivity” value is “Y (1000-5000 fold)”.

Take `Cc1ccc(O)c(C)c1NC(=O)c1cnc(N[C@@H](C)c2ccccc2)s1` [BAA-351, (S)-N-(3-hydroxy-2,6-dimethylphenyl)-2-((1-phenylethyl)amino) thiazole-5-carboxamide]: the IC50 at Human PKMYT1 was in the range of 1 to 11 µM. Besides, at WEE1, the IC50 was > 11 µM and the “PKMYT1 vs. WEE1 selectivity” value is listed as “W (10-<100 fold)”.

Regarding `COc1ccc(CNc2ncc(C(=O)Nc3c(C)ccc(O)c3C)s2)cc1` [BAA-352, N-(3-hydroxy-2,6-dimethylphenyl)-2-((4-methoxybenzyl)amino)thiazole-5-carboxamide], the IC50 at Human PKMYT1 lay within 0.05 to 1 µM. In addition, at WEE1, the IC50 is > 11 µM and the “PKMYT1 vs. WEE1 selectivity” value was “X (100-<1000 fold)”.

For `Cc1ccc(O)c(C)c1NC(=O)c1cnc(NC2Cc3ccccc3C2)s1` [BAA-353, 2-((2,3-dihydro-1H-inden-2-yl)amino)-N-(3-hydroxy-2,6-dimethylphenyl)thiazole-5-carboxamide], the figures for the IC50 against Human PKMYT1 and at WEE1 were 1 to 11 µM and > 11 µM, respectively. On WEE1, the “PKMYT1 vs. WEE1 selectivity” value is on record as “W (10-<100 fold)”.

`Cc1ccc(O)c(C)c1NC(=O)c1cnc(N[C@H](C)c2ccccc2)s1` [BAA-354, (R)-N-(3-hydroxy-2,6-dimethylphenyl)-2-((1-phenylethyl)amino) thiazole-5-carboxamide] had a half-maximal inhibitory concentration (IC50) against Human PKMYT1 of 1 to 11 µM. On WEE1, the half-inhibitory concentration (IC50) is > 11 µM and the “PKMYT1 vs. WEE1 selectivity” value is listed as “W (10-<100 fold)”.

As to `COc1ccccc1CNc1ncc(C(=O)Nc2c(C)ccc(O)c2C)s1` [BAA-355, N-(3-hydroxy-2,6-dimethylphenyl)-2-((2-methoxybenzyl)amino) thiazole-5-carboxamide], the IC50 at Human PKMYT1 was in the range of 0.05 to 1 µM. For the same molecule, on WEE1, the IC50 was > 11 µM and the “PKMYT1 vs. WEE1 selectivity” value is on record as “X (100-<1000 fold)”.

In turn, `Cc1ccc(O)c(C)c1NC(=O)c1cnc(NCc2ccccc2C2CC2)s1` [BAA-356, 2-((2-cyclopropylbenzyl)amino)-N-(3-hydroxy-2,6-dimethylphenyl)thiazole-5-carboxamide] displayed an IC50 against Human PKMYT1 of 1 to 11 µM. Besides, at WEE1, the IC50 was > 11 µM and the “PKMYT1 vs. WEE1 selectivity” value is given as “W (10-<100 fold)”.

On Human PKMYT1, `Cc1ccc(O)c(C)c1NC(=O)c1cnc(NCc2cc3ccccc3[nH]2)s1` [BAA-357, 2-(((1H-indol-2-yl)methyl)amino)-N-(3-hydroxy-2,6-dimethylphenyl)thiazole-5-carboxamide] came in with an IC50 of 0.05 to 1 µM. Further, on WEE1, the IC50 was > 11 µM and the “PKMYT1 vs. WEE1 selectivity” value is reported as “X (100-<1000 fold)”.

Take `Cc1ccc(O)c(C)c1NC(=O)c1cnc(NCc2nccs2)s1` [BAA-358, N-(3-hydroxy-2,6-dimethylphenyl)-2-((thiazol-2-ylmethyl)amino)thiazole-5-carboxamide]: at Human PKMYT1, the 50% inhibitory concentration (IC50) was in the range of 0.05 to 1 µM. Besides, on WEE1, the 50% inhibitory concentration (IC50) is > 11 µM and the “PKMYT1 vs. WEE1 selectivity” value is “X (100-<1000 fold)”.

Regarding `Cc1ccc(O)c(C)c1NC(=O)c1cnc(Nc2cc(C(C)(C)C)nn2-c2ccccc2)s1` [BAA-359, 2-((3-(tert-butyl)-1-phenyl-1H-pyrazol-5-yl)amino)-N-(3-hydroxy-2,6-dimethylphenyl)thiazole-5-carboxamide], the IC50 against Human PKMYT1 was 1 to 11 µM; against WEE1, > 11 µM. For the same molecule, the “PKMYT1 vs. WEE1 selectivity” value on WEE1 is recorded as “W (10-<100 fold)”.

Regarding `Cc1ccc(O)c(C)c1NC(=O)c1cnc(NCc2cn[nH]c2)s1` [BAA-360, 2-(((1H-pyrazol-4-yl)methyl)amino)-N-(3-hydroxy-2,6-dimethylphenyl) thiazole-5-carboxamide], the IC50 against Human PKMYT1 was < 0.05 µM. Also, on WEE1, the IC50 is > 11 µM and the “PKMYT1 vs. WEE1 selectivity” value is given as “Y (1000-5000 fold)”.

`Cc1ccc(O)c(C)c1NC(=O)c1cnc(NCc2nccn2C)s1` [BAA-362, N-(3-hydroxy-2,6-dimethylphenyl)-2-(((1-methyl-1H-imidazol-2-yl)methyl)amino)thiazole-5-carboxamide] registered an IC50 on Human PKMYT1 of 1 to 11 µM. Further, at WEE1, the IC50 is > 11 µM and the “PKMYT1 vs. WEE1 selectivity” value is “W (10-<100 fold)”.

`Cc1cccc(CNc2ncc(C(=O)Nc3c(C)ccc(O)c3C)s2)c1O` [BAA-363, N-(3-hydroxy-2,6-dimethylphenyl)-2-((2-hydroxy-3-methylbenzyl)amino)thiazole-5-carboxamide]: the IC50 against Human PKMYT1 lay within 0.05 to 1 µM. In addition, on WEE1, the IC50 is > 11 µM and the “PKMYT1 vs. WEE1 selectivity” value is “X (100-<1000 fold)”.

The molecule `Cc1nc(CNc2ncc(C(=O)Nc3c(C)ccc(O)c3C)s2)no1` [BAA-364, N-(3-hydroxy-2,6-dimethylphenyl)-2-(((5-methyl-1,2,4-oxadiazol-3-yl)methyl)amino) thiazole-5-carboxamide] had an IC50 against Human PKMYT1 of 1 to 11 µM. At WEE1, the half-inhibitory concentration (IC50) was > 11 µM and the “PKMYT1 vs. WEE1 selectivity” value was “W (10-<100 fold)”.

For the molecule `Cc1cn(Cc2ncco2)nc1Nc1ncc(C(=O)Nc2c(C)ccc(O)c2C)s1` [BAA-366, N-(3-hydroxy-2,6-dimethylphenyl)-2-((4-methyl-1-(oxazol-2-ylmethyl)-1H-pyrazol-3-yl)amino) thiazole-5-carboxamide], at Human PKMYT1, the IC50 is < 0.05 µM. Besides, on WEE1, the IC50 is 1 to 11 µM and the “PKMYT1 vs. WEE1 selectivity” value is on record as “X (100-<1000 fold)”.

On to `Cc1ccc(O)c(C)c1NC(=O)c1cnc(Nc2nn(C)cc2-c2ccccc2)s1` [BAA-373, N-(3-hydroxy-2,6-dimethylphenyl)-2-((1-methyl-4-phenyl-1H-pyrazol-3-yl)amino)thiazole-5-carboxamide], for which, on Human PKMYT1, the IC50 lay in the range of 0.05 to 1 µM. On WEE1, the 50% inhibitory concentration (IC50) is > 11 µM and the “PKMYT1 vs. WEE1 selectivity” value is given as “X (100-<1000 fold)”.
